Laboratory results taken from ChEMBL document CHEMBL5370528, “Synthesis-accessibility-oriented design of c-Jun N-terminal kinase 1 inhibitor” (Eur J Med Chem, 2023).

Key:
[1] = target: T1, Dual specificity mitogen-activated protein kinase kinase 7 (Homo sapiens) (UniProt O14733); assay: Inhibition of MAP2K7 (unknown origin) at 1 uM preincubated for 10 mins followed by substrate addition and measured after 60 mins in the presence of ATP by ADP-Glo reagent based luminescence assay relative to control; conditions: time 70.0 min
T1 sequence (whole entry): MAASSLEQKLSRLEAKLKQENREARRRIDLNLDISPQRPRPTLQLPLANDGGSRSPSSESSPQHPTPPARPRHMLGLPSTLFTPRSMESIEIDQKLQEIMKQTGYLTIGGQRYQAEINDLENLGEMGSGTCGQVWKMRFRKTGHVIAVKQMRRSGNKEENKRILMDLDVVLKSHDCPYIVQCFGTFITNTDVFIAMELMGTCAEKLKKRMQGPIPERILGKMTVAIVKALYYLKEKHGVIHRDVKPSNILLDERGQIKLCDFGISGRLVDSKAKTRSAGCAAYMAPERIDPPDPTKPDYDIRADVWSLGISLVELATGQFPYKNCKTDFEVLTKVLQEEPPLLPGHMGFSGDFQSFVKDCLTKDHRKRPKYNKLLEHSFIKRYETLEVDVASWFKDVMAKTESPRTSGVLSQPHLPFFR

[2] = target: Cyclin-dependent kinase 2/cyclin E1 (Homo sapiens) (UniProt P24864+P24941); assay: Inhibition of CDK2/Cyclin E1 (unknown origin) at 1 uM preincubated for 10 mins followed by substrate addition and measured after 60 mins in the presence of ATP by ADP-Glo reagent based luminescence assay relative to control; type: protein-complex assay; conditions: time 70.0 min
[3] = target: c-Jun N-terminal kinase, JNK (Homo sapiens) (UniProt P45983+P53779+P45984); assay: Inhibition of JNK in human BEAS-2B cells assessed as inhibition of anisomycin-activated c-Jun phosphorylation preincubated for 1 hrs followed by anisomycin activation for 1 hrs by Western blot analysis; type: cell-based; conditions: dose 2-50 µM, time 2.0 hrs
[4] = Cmax in Sprague-Dawley rat at 5 mg/kg, iv by HPLC-UV analysis; type: ADME, organism-based; design: dose 5 mg/kg, route iv; conditions: in vivo

With `CC(C)(C)CNc1ncc(Br)c(Nc2ccccc2C(N)=O)n1` the inhibition [1] was 8.7%, the inhibition [2] was 60.3% and the inhibition [3] was “Dose-Dependent Effect”. It also gave a Cmax [4] of 453 ng/mL.
